{"source": "patent US20250288573A1", "about": "(H. LEE MOFFITT CANCER CENTER AND RESEARCH INSTITUTE, INC., priority 2018, published 2025)", "key": {"[1]": {"tested_on": "c-Myc", "experiment": "Western blot of c-Myc in activated human T cells", "assay_type": "cell-based", "conditions": "human T cells activated by anti-CD3ε/anti-CD28", "text": "(§1) On the right is a schematic diagram of CRBN/DDB1/CUL4A and ubiquitin degrading function. […] DMSO was used in these experiments as a vehicle control. […] CRBN is shown for human T cells and vinculin loading control of human and mouse T cells are provided. […] Results shown are representative of three independent experiments."}, "[2]": {"tested_on": "IL-2", "experiment": "IL-2 production in mouse T cells", "assay_type": "cell-based", "conditions": "absence of CD28 co-stimulation", "method": "(§2) IL-2 mRNA (FIG. 8A) and protein secretion (FIG. 8B) were measured in cells and culture supernatant, respectively. […] Cytokine levels were determined by ELISA. […] Results are representative of three independent experiments. […] Statistical analysis was conducted ANOVA, followed by Dunnett's multiple comparison test. *=p<0.05, ***=p<0.001 FIGS. 9A-9C show the structure of cereblon is concerved across different species. […] FIG. 9C is an overlay of human and mouse cereblon (Val380 and Ile391 for mCRBN; Glu377 and Val388 for hCRBN), are demarcated as thin tubes."}, "[3]": {"molecular_target": "T1, cereblon (CRBN) (Mus musculus, UniProt Q8C7D2)", "T1 construct": "endogenous in cells; host or cells: mouse CD8+ T cells", "T1 sequence (Q8C7D2 1-445)": "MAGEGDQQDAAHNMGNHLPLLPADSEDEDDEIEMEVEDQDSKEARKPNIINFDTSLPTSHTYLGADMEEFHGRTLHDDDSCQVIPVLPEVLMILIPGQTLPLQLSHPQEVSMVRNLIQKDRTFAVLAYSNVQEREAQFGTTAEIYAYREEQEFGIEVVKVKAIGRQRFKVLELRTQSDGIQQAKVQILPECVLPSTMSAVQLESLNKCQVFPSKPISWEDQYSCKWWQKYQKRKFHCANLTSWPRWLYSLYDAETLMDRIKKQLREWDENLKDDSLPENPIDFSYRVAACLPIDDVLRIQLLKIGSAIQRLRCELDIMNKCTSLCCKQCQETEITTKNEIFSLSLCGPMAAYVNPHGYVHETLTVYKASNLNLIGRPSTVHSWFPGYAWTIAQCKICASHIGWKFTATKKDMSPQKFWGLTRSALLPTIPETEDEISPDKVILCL", "experiment": "Western blot of cereblon (CRBN) levels in mouse CD8+ T cells", "assay_type": "cell-based", "conditions": "24 hours of treatment"}, "[4]": {"tested_on": "IL-2", "experiment": "IL-2 mRNA and protein secretion in anti-CD3 stimulated human T cells", "assay_type": "cell-based", "conditions": "anti-CD3 stimulation without CD28 co-stimulation, relative to DMSO", "method": "as §2\nCereblon acts as the E3 ubiquitin ligase (UbL) substrate receptor component of the DNA damage binding protein 1 (DDB1), cullin-4 (CUL4A and B), and ROC1 complex ([…]). […] Blood Cancer J 5, e354, 2015). […] […]. […] Br. J. Haematol. […] Leukemia 26:1425-1429, 2012), which is the hallmark of the immunomodulatory drug class."}, "[5]": {"molecular_target": "T2, BRD4 (Mus musculus, UniProt Q9ESU6)", "T2 construct": "endogenous in cells", "experiment": "Western blot of BRD4 in activated mouse T cells", "assay_type": "cell-based", "conditions": "for BRD4 expression / degradation: mouse T cells activated with anti-CD3ε/anti-CD28", "text": "as §1"}, "[6]": {"tested_on": "CD25 (IL-2 receptor alpha)", "experiment": "Expression of activation marker CD25 on activated human T cells", "assay_type": "cell-based", "conditions": "10 nM", "text": "FIG. 23 is a graph showing human T cells activated with a series of immunomodulatory drugs lead to higher levels of expression of the activation marker CD25 (IL-2 receptor alpha) compared to unstimulated cells and control activated cells."}, "[7]": {"molecular_target": "T3, CRBN (Homo sapiens, UniProt Q96SW2)", "T3 construct": "endogenous in cells; host or cells: primary human T cells / CD8+ T cells from peripheral blood", "T3 sequence (Q96SW2 whole entry)": "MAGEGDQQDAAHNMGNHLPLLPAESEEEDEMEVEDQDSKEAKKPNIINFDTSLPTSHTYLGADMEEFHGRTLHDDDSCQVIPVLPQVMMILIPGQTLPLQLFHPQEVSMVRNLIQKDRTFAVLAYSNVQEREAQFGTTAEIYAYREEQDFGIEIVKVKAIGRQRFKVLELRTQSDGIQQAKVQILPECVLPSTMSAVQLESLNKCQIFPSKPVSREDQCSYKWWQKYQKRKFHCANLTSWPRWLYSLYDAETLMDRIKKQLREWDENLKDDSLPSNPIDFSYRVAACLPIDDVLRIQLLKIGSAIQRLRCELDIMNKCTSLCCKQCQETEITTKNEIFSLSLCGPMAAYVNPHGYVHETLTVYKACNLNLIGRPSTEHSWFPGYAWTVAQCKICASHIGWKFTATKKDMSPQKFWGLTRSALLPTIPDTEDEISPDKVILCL", "experiment": "Western blot for expression of CRBN relative to vinculin in human T cells (CRBN degradation)", "assay_type": "cell-based", "conditions": "for remaining activity at 10 µM / remaining activity at 0.01 µM: read-out: Relative Density of CRBN (% of DMSO); for remaining activity at 0.01 µM: 24 h, 10nM", "text": "Bortez=bortezomib; MG132=proteasome inhibitor; MLN4924=NEDD8 inhibitor.\nThis assay is a standard Western blot assay for expression of CRBN relative to vinculin.\n[…] 0.1 percent DMSO was used as a vehicle control."}, "[8]": {"molecular_target": "T4, Ikaros (Homo sapiens, UniProt Q13422)", "T4 construct": "This molecule has a DC50 for Ikaros at 10 μM and for CRBN at <1 μM; endogenous in cells; host or cells: isolated human CD8+ T cells", "T4 sequence (Q13422 whole entry)": "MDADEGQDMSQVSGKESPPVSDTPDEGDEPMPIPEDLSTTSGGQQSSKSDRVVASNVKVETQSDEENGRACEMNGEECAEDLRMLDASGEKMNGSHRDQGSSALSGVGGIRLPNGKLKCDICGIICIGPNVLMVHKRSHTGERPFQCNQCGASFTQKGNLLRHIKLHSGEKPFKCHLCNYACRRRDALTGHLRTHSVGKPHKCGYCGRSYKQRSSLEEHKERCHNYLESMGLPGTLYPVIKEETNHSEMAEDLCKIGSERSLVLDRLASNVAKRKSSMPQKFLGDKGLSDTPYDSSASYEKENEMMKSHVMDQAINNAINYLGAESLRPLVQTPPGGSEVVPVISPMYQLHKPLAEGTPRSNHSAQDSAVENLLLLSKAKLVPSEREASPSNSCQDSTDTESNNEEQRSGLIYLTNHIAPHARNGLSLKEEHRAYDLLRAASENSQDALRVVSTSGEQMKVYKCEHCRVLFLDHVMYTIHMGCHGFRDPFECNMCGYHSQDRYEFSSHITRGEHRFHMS", "experiment": "Ikaros degradation in isolated human CD8+ T cells", "assay_type": "cell-based", "conditions": "increasing doses", "method": "Isolated human CD8+ T cells were treated with increasing doses of EC1-168. This molecule has a DC50 for Ikaros at 10 μM and for CRBN at <1 μM. Unique functional properties may be afforded to the CDM compounds via distinct protein recruitment.\nIsolated human CD8+ T cells were treated with increasing doses of EC2-134. This molecule has a DC50 for Ikaros at 10 nM and for CRBN at 100 μM. Unique functional properties may be afforded to the CDM compounds via distinct protein recruitment."}, "[9]": {"molecular_target": "T5, cereblon (Mus musculus, UniProt Q8C7D2)", "T5 construct": "from tissue; host or cells: spleen: purified splenic T cells and total splenocytes of treated mice", "T5 sequence (Q8C7D2 1-445)": "T1 sequence (Q8C7D2 1-445)", "experiment": "Western blot of cereblon in splenic T cells / splenocytes of mice treated orally with a single dose", "assay_type": "in vivo", "conditions": "for cereblon levels in purified splenic T cells: single oral dose of 75 mg/kg", "method": "FIG. 24 is a graph of results from Western blots from purified splenic T cells of mice treated orally with a single dose of 75 mg/kg SM2-145. Three mice were obtained from each time point (1, 6, 12, and 24 hrs) after treatment.\nFIG. 25 contains a Western blot analysis of purified T cells from mice treated orally with a single dose of 75 mg/kg EC2-035 and EC2-134."}, "[10]": {"molecular_target": "T6, cereblon (CRBN) (Homo sapiens, UniProt Q96SW2)", "T6 sequence (Q96SW2 whole entry, species assumed)": "as the sequence (Q96SW2 whole entry) above", "experiment": "Kd and % inhibition from FI", "assay_type": "binding"}, "[11]": {"experiment": "Pharmacokinetic studies", "conditions": "in vivo"}, "[12]": {"tested_on": "T cells expanded from patients with melanoma", "experiment": "Cytokine assays (IL-2, IFN-γ) in T cells expanded from patients with melanoma", "assay_type": "cell-based, human", "text": "Veh=vehicle-treated cells DMSO 0.1%"}, "[13]": {"molecular_target": "T6, cereblon (CRBN)", "experiment": "Kd from ITC", "assay_type": "binding"}, "[14]": {"tested_on": "IKZF1", "experiment": "Western blot of IKZF1 (Ikaros) in T cells and multiple myeloma cells", "assay_type": "cell-based"}, "[15]": {"conditions": "isolated human CD8+ T cells, increasing doses, read-out: DC50 for CRBN"}, "[16]": {"conditions": "single oral dose of 12.5, 25, and 75 mg/kg"}}, "note": "Entries after “also recorded” stand apart in the source; their conditions may differ. Like-named read-outs stand apart in the source and are kept apart here."}
{"smiles": "Cc1sc2c(c1C)C(c1ccc(Cl)cc1)=N[C@@H](CC(=O)OC(C)(C)C)c1nnc(C)n1-2", "note": "[JQ1]", "values": [{"measurement": "c-Myc suppression", "setting": "[1]", "result": "Suppression of c-Myc is evident"}]}
{"smiles": "Nc1cccc2c1CN(C1CCC(=O)NC1=O)C2=O", "note": "(stereo not drawn) [lenalidomide, Lenalidomide]", "values": [{"measurement": "IL-2 production", "setting": "[2]", "result": "not"}, {"measurement": "cereblon (CRBN) levels (Western blot)", "setting": "[3]", "result": "not"}, {"measurement": "IL-2 production (mRNA and protein secretion)", "setting": "[4]", "result": "significantly increased; also recorded: augments IL-2 production"}]}
{"smiles": "Cc1sc2c(c1C)C(c1ccc(Cl)cc1)=N[C@@H](CC(=O)NCCCCNC(=O)COc1cccc3c1C(=O)N(C1CCC(=O)NC1=O)C3=O)c1nnc(C)n1-2", "note": "(stereo partly drawn) [dBET1]", "values": [{"measurement": "BRD4 expression / degradation", "setting": "[5]", "result": "degrades BRD4"}, {"measurement": "c-Myc suppression", "setting": "[1]", "result": "Suppression of c-Myc is evident"}]}
{"smiles": "CS(=O)(=O)O.O=C1CC[C@H](N2Cc3c(OCc4ccc(CN5CCN(Cc6ccc(COc7cccc8c7CN([C@H]7CCC(=O)NC7=O)C8=O)cc6)CC5)cc4)cccc3C2=O)C(=O)N1", "note": "[EC1-168, (4-(4-(((2-((S)-2,6-dioxopiperidin-3-yl)-1-oxoisoindolin-4-yl)oxy)methyl)benzyl)-114-piperazin-1-yl)(4-(((2-((S)-2,6-dioxopiperidin-3-yl)-1-oxoisoindolin-4-yl)oxy)methyl)phenyl)methylium methyl sulfonate]", "values": [{"measurement": "expression of the activation marker CD25", "setting": "[6]", "result": "induces more immune potentiation"}, {"measurement": "DC50", "setting": "[7]; [15]", "result": "< 1", "unit": "µM"}, {"measurement": "DC50", "setting": "[8]", "result": 10, "unit": "µM"}]}
{"smiles": "O=C1CCC(N2Cc3c(CCCOCCOCCCc4cccc5c4CN(C4CCC(=O)NC4=O)C5=O)cccc3C2=O)C(=O)N1", "note": "(stereo not drawn) [SM2-145, 3,3′-(((Ethane-1,2-diylbis(oxy))bis(propane-3,1-diyl))bis(1-oxoisoindoline-4,2-diyl))bis(piperidine-2,6-dione)]", "values": [{"measurement": "cereblon levels in purified splenic T cells", "setting": "[9]", "result": "partial reduction in cereblon levels at 6 hours"}, {"measurement": "Kd", "setting": "[10]; FI, read-out: Kd (FI) (converted)", "result": "6.59 ± 1.57", "unit": "µM"}, {"measurement": "inhibition at 200 µM", "setting": "[10]; read-out: % inhibition @ 200 uM from *FI", "result": "70.19 ± 0.28", "unit": "%"}, {"measurement": "stability in pharmacokinetic studies", "setting": "[11]", "result": "Poor stability"}, {"measurement": "remaining activity at 10 µM", "setting": "[7]", "result": 7.21, "unit": "%"}, {"measurement": "remaining activity at 0.01 µM", "setting": "[7]; human T cells, 24 hours", "result": 21, "unit": "%"}, {"measurement": "specificity for CRBN degradation over Ikaros", "setting": "[7]; human T cells, 24 hours", "result": "Specificity is shown for CRBN degradation over Ikaros"}, {"measurement": "intracellular cereblon levels (Western blot)", "setting": "[7]; human T cells, 24 hours of treatment", "result": "reduced intracellular cereblon levels"}, {"measurement": "DC50", "setting": "[7]; human T cells, 24 hours, read-out: DC50 (concentration leading to 50% degradation of cereblon)", "result": 0.00288, "unit": "µM"}, {"measurement": "T cell function (IL-2 and IFN-γ after anti-CD3 (OKT3) activation)", "setting": "[12]", "result": "actively increasing T cell function"}, {"measurement": "Kd", "setting": "[13]", "result": "6.6 ± 0.8", "unit": "µM"}, {"measurement": "cereblon (CRBN) levels (Western blot)", "setting": "[3]", "result": "reduced cereblon (CRBN) levels"}]}
{"smiles": "Cc1nc2cccc(N)c2c(=O)n1C1CCC(=O)NC1=O", "note": "(stereo not drawn) [CC122, avadomide, reference compound]", "values": [{"measurement": "T cell function (IL-2 and IFN-γ after anti-CD3 (OKT3) activation)", "setting": "[12]", "result": "actively increasing T cell function"}]}
{"smiles": "O=C1CCC(N2C(=O)c3cccc(NCc4ccc(CNc5cccc6c5C(=O)N(C5CCC(=O)NC5=O)C6=O)cc4)c3C2=O)C(=O)N1", "note": "(stereo not drawn) [EC2-134]", "values": [{"measurement": "cereblon levels in purified splenic T cells", "setting": "[9]", "result": "sustained reduction in cereblon levels at 6, 9 and 12 hours"}, {"measurement": "cereblon levels in purified T cells", "setting": "[9]; [16]", "result": "inverse dose dependent levels of cereblon"}, {"measurement": "cereblon levels in total splenocytes", "setting": "[9]; [16]", "result": "inverse dose dependent levels of cereblon"}, {"measurement": "cereblon levels in purified T cells at the lowest dose", "setting": "[9]; single oral dose, lowest dose (12.5 mg/kg), compared with Crbn-/- T cells", "result": "significantly reduced"}, {"measurement": "remaining activity at 10 µM", "setting": "[7]", "result": 13.8, "unit": "%"}, {"measurement": "remaining activity at 0.01 µM", "setting": "[7]; human T cells, 24 hours", "result": 4, "unit": "%"}, {"measurement": "DC50", "setting": "[7]; [15]", "result": 100, "unit": "µM"}, {"measurement": "DC50", "setting": "[8]", "result": 0.01, "unit": "µM"}]}
{"smiles": "Nc1cccc2c1C(=O)N(C1CCC(=O)NC1=O)C2=O", "note": "(stereo not drawn) [pomolidomide]", "values": [{"measurement": "BRD4 expression / degradation", "setting": "[5]", "result": "failed to reduce BRD4 expression"}, {"measurement": "effect on dBET1-induced BRD4 degradation", "setting": "[5]; mouse T cells, Pom 0.5 μM with dBET1", "result": "reversed the degradation observed through dBET1"}, {"measurement": "IKZF1 expression", "setting": "[14]", "result": "decreased"}]}
